Test results taken from the METLIN SMRT retention time set (Domingo-Almenara et al. 2019).

Experiment: gradient 5% acetonitrile 3 min, to 50% in 2 min, to 85% in 15 min, held 3 min, 100 µL/min
Conditions: column: Zorbax Extend-C18 2.1 x 50 mm; eluents: water / acetonitrile, 0.1% formic acid
Summary of the method: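 Retention times of pure standards were taken from adduct peaks that were selected by computer and manually inspected. Over 3 months, mixtures of ~100 molecules were run by HPLC–quadrupole time-of-flight mass spectrometry in positive and negative ionization mode. The Zorbax Extend-C18 column (2.1 × 50 mm, 1.8 μm) ran at 100 μL/min in water and acetonitrile, each containing 0.1% formic acid, with 40 μL dead volume and 900 μL dwell volume.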

| RP-LC retention time | Structure (SMILES) |
| --- | --- |
| 603 s | CC(C)c1ccccc1NS(=O)(=O)c1cc(-c2nc(C(C)(C)C)cs2)cs1 |
| 719 s | CN1C(=O)c2ccccc2Oc2ccc(C(=O)N3CCCC3)cc21 |
| 749 s | Cn1c(C(=O)N2CCN(c3ccccn3)CC2)cc2c(-c3cccs3)nn(-c3ccccc3)c21 |
| 742 s | CCOC(=O)Cc1ccc(NC(=O)NC2CCN(c3ccccc3)C2=O)cc1 (centres undefined) |
| 853 s | O=C(CN1CCN(Cc2ccccc2F)C1=O)NCc1ccccc1Br |
| 996 s | CCN(CC)C(=O)c1cc(C)nc2c1c(=O)n(Cc1nc(-c3ccccc3)oc1C)c(=O)n2C |
| 698 s | COc1ccc(C2Cn3cnc(C(=O)N4CCC(C(=O)NCc5ccco5)CC4)c3CO2)cc1 (centres undefined) |
| 672 s | CCn1cc(CN2CCC(C(=O)NC(C)CCc3ccccc3)CC2)c2cc(Cl)ccc21 (centres undefined) |
| 1080 s | O=S(=O)(c1cc(-c2nnc(C3CC3)o2)co1)N1CCC(Cc2ccccc2)CC1 |
| 733 s | O=C(Cc1ccccc1Cl)N1CCN(S(=O)(=O)C2CC2)CC1 |
| 1290 s | COc1ccc(-c2noc(-c3cccnc3N3CCN(c4ccccc4)CC3)n2)cc1 |
| 793 s | O=C(CSc1nnc(-c2ccccc2)o1)Nc1nsc(-c2ccccc2)n1 |
| 697 s | Clc1ccc(-c2noc3ncnc(N4CCN(c5ccccn5)CC4)c23)cc1 |
| 892 s | CCn1cc(-c2nc(CC(=O)Nc3ccccc3)cs2)c2cccnc21 |
| 817 s | COCCCN1C(=O)c2ccc(-c3ccco3)n2CC1(C)C(=O)NCc1ccccc1 (centres undefined) |
| 794 s | COc1ccc(CC(=O)N2CCCC(c3nnc(-c4ccccc4F)s3)C2)cc1OC (centres undefined) |
| 721 s | O=C(Cn1ccn2nc(-c3ccccc3)c(CO)c2c1=O)NC1CCCC1 |
| 834 s | c1ccc(CN2CCC3(CCCc4ccccc43)CC2)cc1 |
| 825 s | COCc1c(C(=O)O)nnn1-c1ccc(C(C)C)cc1 |
| 794 s | O=C(Nc1ccnn1Cc1cccs1)c1ccccc1Br |
| 844 s | CC12C(=O)N(Cc3ccccc3)C(=O)C1C1C=CC2C1 (centres undefined) |
| 634 s | Cn1cc(CN2CC(F)(F)C[C@H]2COc2ccncc2)c2ccccc21 |
| 595 s | CC(C)N1CCN(c2ncc(C(=O)NCc3ccccc3)c(N)n2)CC1 |

| RP-LC retention time | Structure (SMILES) |
| --- | --- |
| 812 s | COc1ccc(N2C(=O)CN(Cc3ccccc3C)[C@H]3CS(=O)(=O)C[C@H]32)cc1 |
| 1020 s | CCn1c(=O)c(N2CCC(NC(=O)Nc3ccc(Br)cc3)CC2)nc2ccccc21 |
| 589 s | CC(=O)N1CCN(C2=NC(=O)/C(=C\c3ccc(O)c([N+](=O)[O-])c3)S2)CC1 |
| 747 s | O=C(NCC1CC1)C1CCN(c2nc3ccsc3c(=O)n2-c2ccccc2)CC1 |
| 780 s | O=C(Cn1nc(C(=O)N2CCCC2)c2ccccc21)NCc1ccc(F)cc1 |
| 1220 s | CC(C)(C)c1cc(N2CCN(c3ccccn3)CC2)n2ncc(-c3ccc(Cl)cc3)c2n1 |
| 615 s | Cc1ccsc1CN1CC(Oc2ccccc2C(=O)NC2CC2)C1 |
| 854 s | COCCCNC(=O)C(C)n1c(=O)c(C(F)(F)F)nc2ccccc21 (centres undefined) |
| 998 s | Cc1ccc2[nH]cc(CCNC(=O)c3ccc(N4CCCC4)c(S(=O)(=O)N4CCCC4)c3)c2c1 |
| 700 s | O=C(NCCC1CCN(C(=O)Nc2ccc(F)cc2F)CC1)c1ccco1 |
| 803 s | N#CC1=C(SCC(=O)NCc2ccccc2)NC(=O)CC1c1cccc([N+](=O)[O-])c1 (centres undefined) |
| 604 s | COc1cccc(CC(=O)N2CCC(Nc3ncnc4c3CCC4)C2)c1 (centres undefined) |
| 943 s | O=C(C1c2ccccc2CCN1C(=O)C1CC1)N1CCN(c2ccc(F)cc2)CC1 (centres undefined) |
| 1180 s | Cc1ccccc1-c1nc(C2CCN(S(=O)(=O)c3ccc(F)cc3)CC2)no1 |
| 758 s | COc1cc(NCc2ccccc2O)c2ncccc2c1 |
| 870 s | Cc1nn(CC(=O)NCCC2=CCCCC2)c(=O)c2c(C)n(-c3ccccc3)nc12 |
| 878 s | Cc1ccc(-n2nc3c(=O)n(C(C)C(=O)NCc4ccc5c(c4)OCO5)nc(C)c3c2C)cc1 (centres undefined) |
| 577 s | CCN1CCN(CCCNc2nc(-c3ccc(Cl)cc3)nc3ccccc23)CC1 |
| 787 s | CC(NC(=O)Cn1cc(C(=O)C(=O)N2CCOCC2)c2ccccc21)c1ccc2c(c1)OCCCO2 (centres undefined) |
| 754 s | COc1ccc(OC)c(CNC(=O)C2CCN(c3ncnc4c3oc3ccccc34)CC2)c1 |
| 1000 s | CCOC(=O)c1noc2ncnc(Nc3ccccc3)c12 |
| 647 s | CCCNC(=O)c1cc(=O)[nH]c2c(C)cccc12 |

The remaining lines, values behind:

| Structure (SMILES) | RP-LC retention time |
| --- | --- |
| Cc1ccc(NC(=O)Nc2nccn(-c3cccc(Cl)c3)c2=O)cc1C | 1090 s |
| NC(=O)CCC(C(=O)O)N1C(=O)C2C3CCC(C3)C2C1=O (centres undefined) | 638 s |
| O=C(C1CCN(c2cncnc2N2CCCC2)CC1)N1CCCCC1 | 613 s |
| COc1cc(-c2nc(C3CC(=O)N(c4ccc(F)cc4)C3)no2)cc(OC)c1OC (centres undefined) | 901 s |
| c1cc2c3c(cccc3c1)NC1(CCC3(CC1)Nc1cccc4cccc(c14)N3)N2 | 1200 s |
| CCOC(=O)c1ccc2ncc(C(=O)OCC)c(NCCN(C)C)c2c1 | 569 s |
| Cc1ccc(N2CC(c3noc(-c4ccc5c(c4)OCO5)n3)CC2=O)cc1 (centres undefined) | 957 s |
| NS(=O)(=O)c1ccc(NC(=O)C2Cc3ccccc3C(=O)O2)cc1 (centres undefined) | 684 s |
| Cc1cnc(C(=O)N2CCCC(c3nnc4n3CCN(C(=O)C3CC3)C4)C2)cn1 (centres undefined) | 584 s |
| Cc1ccc(C(=O)N(c2ccc(Br)cc2)C2C=CS(=O)(=O)C2)cc1 (centres undefined) | 835 s |
| CCn1c(=O)oc2cc(-c3noc(-c4cccc5[nH]ccc45)n3)ccc21 | 1000 s |
| COc1ccc(-c2noc(N3CCC(N4CCCCC4)CC3)n2)cc1OC | 590 s |
| COC(=O)N1CCc2ccc(F)cc2C1C(=O)Nc1ccc(OC)c(Cl)c1 (centres undefined) | 874 s |
| O=C(NC1CCCC1)C1CCN(C(=O)c2ccc(-c3noc(C4CC4)n3)cc2)CC1 | 813 s |
| O=C(c1ccsc1)N1CCCC1c1nc(-c2ccc(F)cc2F)no1 (centres undefined) | 907 s |
| CC1CN(Cc2nc3c(c(=O)n(C)c(=O)n3C)n2Cc2ccccc2Cl)CC(C)O1 (centres undefined) | 751 s |
| COc1cc(-c2nnc(SCC(=O)N3CCCCC3C)o2)cc(OC)c1OC (centres undefined) | 867 s |
| Cc1ccc(NC(=O)N2CCC(OC3CCN(S(C)(=O)=O)CC3)CC2)cc1C | 803 s |
| Clc1cccc(-c2csc(Cc3nc(-c4ccc5c(c4)OCO5)no3)n2)c1 | 1260 s |
| Cc1noc(C2(NC(=O)Nc3cccc(Cl)c3C)CCCCC2)n1 | 872 s |
| COC(=O)c1ccc(NC(=O)N2CCCC2c2cccc(F)c2)cc1 (centres undefined) | 898 s |
| CCn1cc(-c2nc(C)c(C(=O)Nc3cc(OC)ccc3OC)s2)c2cccnc21 | 1130 s |

| Structure (SMILES) | RP-LC retention time |
| --- | --- |
| CCOC(=O)Nc1cccc(C(F)(F)F)c1 | 890 s |
| COc1ccccc1/C=C/c1nc(-c2cccc(-c3ccnn3C)c2)no1 | 1200 s |
| CCCN1C(=O)Cc2ccccc2C1C(=O)NC1CCCCCC1 (centres undefined) | 862 s |
| Cc1c(C(=O)NCCCN2CCOCC2)oc2ccc3c(c12)C(O)CC(C)(C)O3 (centres undefined) | 612 s |
| Cc1c(Cl)cccc1NC(=O)CCc1nc(CSc2nnc(-c3ccccc3)o2)no1 | 949 s |
| COc1ccc(-c2noc(Cn3ccn(-c4ccccc4)c(=O)c3=O)n2)cc1 | 794 s |
| Cc1n[nH]c(C)c1CCC(=O)N1CCCn2ccnc2C1C1CCCC1 (centres undefined) | 559 s |
| CC1(C)SC(C)(C)N(C=O)C1C(=O)O (centres undefined) | 708 s |
| O=C(Cn1cnc(-c2noc(-c3ccc(F)cc3)n2)c1)NCc1ccc(Cl)cc1 | 917 s |
| COc1cccc(-c2n[nH]c3c2C(c2ccc(O)cc2)N(C)C3=O)c1 (centres undefined) | 693 s |
| Cc1nn(-c2ccc(-c3noc(C4CC4)n3)cc2)cc1C(=O)Nc1cc(F)ccc1F | 1070 s |
| CCOC(=O)C1CCCN(C(=O)C2c3cc(OC)c(OC)cc3C(=O)N(C)C2c2cccs2)C1 (centres undefined) | 787 s |
| CCOC(=O)c1ccc(NC(=O)c2cc3sc(Cl)cc3n2CC)cc1 | 1260 s |
| CCCS(=O)(=O)c1nc2ccc(NS(=O)(=O)c3cc(C)c(C)cc3C)cc2s1 | 1040 s |
| COc1cccc(NC(=O)C2CCCN(S(=O)(=O)c3c[nH]c(C(=O)N4CCCC4)c3)C2)c1 (centres undefined) | 765 s |
| C=CCn1c(=O)c2ccccc2n(Cc2nc(-c3ccc(Cl)c(F)c3)no2)c1=O | 1120 s |
| O=C(Nc1cccn2nc(C3CCC3)nc12)C1CCCO1 (centres undefined) | 774 s |
| Cc1ccc(CN2CCN(C3CCN(S(=O)(=O)c4ccc(F)c(F)c4)CC3)C(=O)C2=O)cc1 | 880 s |
| CCN1C(=O)COc2ccc(-c3noc(-c4ccccc4Br)n3)cc21 | 1180 s |
| CCCCOc1ccc(NC(=O)c2cc(=O)c3cc(C)cc(C)c3o2)c2cccnc12 | 838 s |
| CN1C(=O)c2cc(S(=O)(=O)Nc3cccc(F)c3)ccc2Oc2cccnc21 | 879 s |
| Cc1ncc2c(n1)C[C@@H]1CC[C@H]2N1C(=O)Nc1ccc2c(c1)OCCO2 | 630 s |
